US12297192B2, “Crystal form of pyrimidine sulfonamide compound and preparation method therefor” (WUXI BIOCITY BIOPHARMACEUTICS CO., LTD., priority 2019, dated 2025)

Target: T1, human ETA receptors (Homo sapiens, UniProt P25101)
T1 construct: endogenously expressed human ETA receptors in SK-N-MC cells; host or cells: SK-N-MC cells
T1 sequence (P25101 21-427): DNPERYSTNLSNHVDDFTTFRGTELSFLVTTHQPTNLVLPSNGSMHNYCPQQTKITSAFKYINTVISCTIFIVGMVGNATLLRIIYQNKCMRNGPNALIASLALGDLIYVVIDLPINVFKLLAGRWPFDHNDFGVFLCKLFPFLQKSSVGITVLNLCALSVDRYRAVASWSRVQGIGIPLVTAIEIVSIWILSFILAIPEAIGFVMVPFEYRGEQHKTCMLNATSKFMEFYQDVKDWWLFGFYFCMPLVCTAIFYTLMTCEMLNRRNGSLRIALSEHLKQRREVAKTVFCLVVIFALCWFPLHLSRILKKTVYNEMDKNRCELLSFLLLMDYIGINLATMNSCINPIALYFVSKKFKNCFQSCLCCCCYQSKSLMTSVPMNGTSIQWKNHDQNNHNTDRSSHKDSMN
Test: In vitro antagonistic effect on human ETA receptors (Ca2+ fluorescence, SK-N-MC cells)
Type: cell-based
Method: The antagonistic activity of the compounds on endogenously expressed human ETA receptors in SK-N-MC cells was assessed by measuring the effects of the compounds on changes in cytoplasmic Ca^2+ ion signaling induced by an agonist of human ETA receptor using a fluorescence assay. The functional activity of the ETA receptor antagonistic effect was tested at Eurofins-Cerep SA according to current standard operating procedures.
• 1. Cells were suspended in Dulbecco's modified Eagle medium solution (DMEM, Invitrogen) supplemented with 1% FCSd and then distributed at a density of 5×10^4 cells/well in 384 plates (100 μL/well). • 2. Hank's Balanced Salt Solution (HBSS, Invitrogen) supplemented with 20 mM 4-(2-hydroxyethyl) piperazine-1-ethanesulfonic acid (Hepes, Invitrogen) (pH 7.4) was mixed with the fluorescent probe (Fluo4 NW, Invitrogen) and added to each well. Equilibrated with the cells for 60 minutes at 37° C. and then for 15 min at 22° C. • 3. The assay plate was placed in a microplate reader (CellLux, PerkinElmer). DMSO solution of the test compound and the positive control in appropriate concentration or HBSS buffer was added. After 5 minutes, 1 nM endothelin-1 or HBSS buffer (basal control) was added. Then the change in fluorescence intensity was measured. The fluorescence intensity is in proportion to the Ca^2+ ion concentration of the free cytosol. • 4. […] The standard positive control was BQ-123 and several concentrations were tested in each experiment and the data was analyzed using Prism to produce a concentration-response curve to calculate the IC50 values of the compounds. • 6.

COCCNS(=O)(=O)Nc1ncnc(OCCOc2ncc(Br)cn2)c1-c1ccc2c(c1)OCO2
In vitro antagonistic activity against the human ETA receptor (in words): very high | Selectivity for ETA over ETB: 20,000 fold | IC50 (SK-N-MC cells, 1 nM endothelin-1): 1.6 nM | ETA/ETB Selectivity (table value): 20000
